Assay results taken from publication PMC4632759, “Studies on [5,6]-Fused Bicyclic Scaffolds Derivatives as Potent Dual B-Raf^V600E/KDR Inhibitors Using Docking and 3D-QSAR Approaches” (International Journal of Molecular Sciences, 2015).
Read-outs that look alike come from different tables or passages of the source.

Experiments:
VEGFR2 [1] = target: T1, VEGFR2 (Homo sapiens, UniProt P35968); experiment: VEGFR2 (KDR) kinase inhibition (literature data set); assay type: biochemical
Procedure: (§1) The IC50 values of all compounds for B-Raf and KDR inhibition were converted to the −log IC50 (pIC50) as dependent variables in the 3D-QSAR analysis. The 3D structures for all 40 compounds were built and minimized, and then Gasteiger-Hückel charge was calculated.

B-Raf^V600E [2] = target: T2, B-Raf^V600E (Homo sapiens, UniProt P15056, V600E); experiment: B-Raf^V600E kinase inhibition (literature data set); assay type: biochemical; conditions: −log IC50 of literature IC50; for IC50: read-out: B-Raf Actual pIC50 (converted)
T2 sequence (P15056 whole entry V600E): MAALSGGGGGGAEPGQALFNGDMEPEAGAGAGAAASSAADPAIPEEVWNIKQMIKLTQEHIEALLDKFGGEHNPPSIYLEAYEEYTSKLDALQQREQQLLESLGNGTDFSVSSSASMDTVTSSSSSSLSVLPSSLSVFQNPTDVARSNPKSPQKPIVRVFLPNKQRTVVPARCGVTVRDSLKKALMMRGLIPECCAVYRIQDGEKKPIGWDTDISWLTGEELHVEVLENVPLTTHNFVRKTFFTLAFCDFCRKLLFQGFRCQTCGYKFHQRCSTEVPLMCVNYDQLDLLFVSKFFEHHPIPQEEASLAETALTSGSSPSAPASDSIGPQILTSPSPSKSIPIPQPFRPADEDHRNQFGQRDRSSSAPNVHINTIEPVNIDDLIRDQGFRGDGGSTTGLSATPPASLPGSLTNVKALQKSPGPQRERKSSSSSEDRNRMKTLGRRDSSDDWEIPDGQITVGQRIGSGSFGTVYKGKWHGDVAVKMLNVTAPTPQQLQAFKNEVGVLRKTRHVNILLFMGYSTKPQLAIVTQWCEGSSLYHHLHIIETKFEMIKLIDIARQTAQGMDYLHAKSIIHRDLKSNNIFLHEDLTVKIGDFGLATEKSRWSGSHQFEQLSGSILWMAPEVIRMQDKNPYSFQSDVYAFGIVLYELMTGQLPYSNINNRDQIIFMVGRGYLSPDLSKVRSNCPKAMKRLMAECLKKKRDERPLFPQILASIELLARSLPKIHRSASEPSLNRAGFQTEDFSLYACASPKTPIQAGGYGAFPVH
Procedure: as §1, with “calculated. All works were all done in SYBYL 6.9 (Tripos, Inc.: St. Louis, MO, USA, 2002).” for “calculated.”

VEGFR2 [3] = target: T1, VEGFR2; parameters: method as in PMID 22376051, PMID 22763369, PMID 22883026, PMID 23906342; conditions: literature values used as 3D-QSAR data set; read-out: Kinase IC50 VEGFR2; cited from earlier work
B-Raf^V600E [4] = target: T2, B-Raf^V600E; parameters: method as in PMID 22376051, PMID 22763369, PMID 22883026, PMID 23906342; conditions: literature values used as 3D-QSAR data set; read-out: Kinase IC50 B-Raf^V600E; cited from earlier work
B-Raf^V600E [5] = target: T2, B-Raf^V600E; experiment: B-Raf^V600E inhibitory activity of designed new compounds (preliminary pharmacological evaluation); assay type: biochemical; conditions: for IC50: preliminary biological tests
Text: (§2) The designed molecules were synthesized and the preliminary pharmacological evaluation would be used to verify the biological activity and our design strategy.

KDR = KDR (Homo sapiens, UniProt P35968); experiment: KDR inhibitory activity of designed new compounds (preliminary pharmacological evaluation); assay type: biochemical; conditions: for IC50: preliminary biological tests
Chain of KDR (P35968 20-1356): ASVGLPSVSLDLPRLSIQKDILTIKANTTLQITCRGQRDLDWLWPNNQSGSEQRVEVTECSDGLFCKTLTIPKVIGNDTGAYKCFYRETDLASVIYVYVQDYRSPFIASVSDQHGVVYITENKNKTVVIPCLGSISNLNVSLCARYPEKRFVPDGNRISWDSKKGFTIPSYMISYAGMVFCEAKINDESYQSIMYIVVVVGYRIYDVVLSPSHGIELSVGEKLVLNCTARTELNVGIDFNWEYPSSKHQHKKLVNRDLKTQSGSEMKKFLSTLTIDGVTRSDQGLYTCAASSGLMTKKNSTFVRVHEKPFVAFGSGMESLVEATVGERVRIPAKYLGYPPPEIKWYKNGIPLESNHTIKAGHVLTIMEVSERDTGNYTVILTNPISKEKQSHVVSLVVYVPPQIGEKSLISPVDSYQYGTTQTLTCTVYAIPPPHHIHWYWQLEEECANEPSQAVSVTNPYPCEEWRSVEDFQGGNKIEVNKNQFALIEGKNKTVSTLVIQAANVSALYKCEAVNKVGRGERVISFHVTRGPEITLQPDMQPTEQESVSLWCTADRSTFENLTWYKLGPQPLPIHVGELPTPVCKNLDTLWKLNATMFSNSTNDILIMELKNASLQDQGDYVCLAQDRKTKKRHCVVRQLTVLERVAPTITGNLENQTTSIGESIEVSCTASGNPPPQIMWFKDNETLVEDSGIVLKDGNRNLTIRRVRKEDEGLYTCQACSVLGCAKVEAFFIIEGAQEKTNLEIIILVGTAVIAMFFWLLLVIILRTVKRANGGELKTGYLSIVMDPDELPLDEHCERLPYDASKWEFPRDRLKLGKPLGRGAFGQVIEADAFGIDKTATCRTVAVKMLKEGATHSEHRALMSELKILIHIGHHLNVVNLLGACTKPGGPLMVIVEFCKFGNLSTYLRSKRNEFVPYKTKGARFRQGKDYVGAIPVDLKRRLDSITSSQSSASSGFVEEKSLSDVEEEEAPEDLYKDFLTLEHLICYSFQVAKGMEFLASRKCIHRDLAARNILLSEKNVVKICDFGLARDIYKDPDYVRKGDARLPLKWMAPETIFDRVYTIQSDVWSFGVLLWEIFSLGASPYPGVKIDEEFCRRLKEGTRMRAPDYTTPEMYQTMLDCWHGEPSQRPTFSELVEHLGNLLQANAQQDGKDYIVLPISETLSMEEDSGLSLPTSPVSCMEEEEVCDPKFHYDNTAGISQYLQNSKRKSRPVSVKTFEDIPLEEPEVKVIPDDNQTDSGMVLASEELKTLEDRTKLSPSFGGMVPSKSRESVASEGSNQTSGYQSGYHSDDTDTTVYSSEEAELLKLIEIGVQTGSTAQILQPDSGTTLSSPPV
Text: as §2

T1 sequence (P35968 806-1171): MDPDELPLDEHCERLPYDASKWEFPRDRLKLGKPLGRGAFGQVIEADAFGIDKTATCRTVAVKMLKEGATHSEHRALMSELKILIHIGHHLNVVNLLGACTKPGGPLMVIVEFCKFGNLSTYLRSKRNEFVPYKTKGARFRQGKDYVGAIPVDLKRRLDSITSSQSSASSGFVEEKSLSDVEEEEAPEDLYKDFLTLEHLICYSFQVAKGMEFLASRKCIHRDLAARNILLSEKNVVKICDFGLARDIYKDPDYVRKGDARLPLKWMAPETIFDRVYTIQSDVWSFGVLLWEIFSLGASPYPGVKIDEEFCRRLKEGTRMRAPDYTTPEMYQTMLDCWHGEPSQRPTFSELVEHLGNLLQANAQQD

Compound | KDR Actual pIC50 (VEGFR2 [1]; −log IC50 of literature IC50) | B-Raf Actual pIC50 (B-Raf^V600E [2]) | IC50 (VEGFR2 [1]) | IC50 (B-Raf^V600E [2]) | IC50 (VEGFR2 [3]) | IC50 (B-Raf^V600E [4]) | also measured
COC(=O)c1c(Oc2cccc(NC(=O)c3cccc(C(C)(C)C#N)c3)c2)ccc2nc(NC(=O)C3CC3)sc12 [Compound 5-3] | 7.48 | 7.92 | – | – | – | – | –
CC(C)(C#N)c1cccc(C(=O)Nc2cccc(Oc3ccc4nc(NC(=O)C5CC5)sc4c3C#N)c2)c1 [Compound 5-2] | 7.12 | 7.89 | – | – | – | – | –
O=C(Nc1cccc(Oc2ccc3nc(NC(=O)C4CC4)cn3n2)c1)c1ccc(C(F)(F)F)cc1 [Compound 1-7] | – | – | 1.91 nM | 81.3 nM | 1.9 nM | 81 nM | –
N#CC1(c2cccc(C(=O)Nc3cccc(Oc4ccc5nc(NC(=O)C6CC6)sc5n4)c3)c2Cl)CC1 [Compound 3-2] | – | – | 3.98 nM | 8.91 nM | 4 nM | 9 nM | –
CC(=O)Nc1nc2ccc(N(C)c3ccc(F)c(NC(=O)c4cccc(OC(C)(C)C#N)c4Cl)c3)nc2s1 [Compound 3-7] | 7.85 | 7.35 | – | – | – | – | –
N#CC1(c2cccc(C(=O)Nc3cccc(Oc4ccc5nc(NC(=O)C6CC6)sc5n4)c3)c2)CC1 [Compound 3-1] | – | – | 2.19 nM | 3.02 nM | 2.2 nM | 3 nM | –
CC(C)(C#N)c1cccc(C(=O)Nc2cccc(Oc3ccc4nc(NC(=O)C5CC5)cn4n3)c2)c1 [Compound 1-12] | – | – | 1.51 nM | 14.1 nM | 1.5 nM | 14 nM | –
O=C(Nc1cccc(Oc2ccc3nc(NC(=O)C4CCC4)cn3n2)c1)c1cccc(C(F)(F)F)c1 [Compound 1-5] | – | – | 4.79 nM | 28.2 nM | 4.8 nM | 28 nM | –
CC(=O)Nc1nc2cnc(Oc3cc(NC(=O)c4cccc(OC(C)(C)C#N)c4)ccc3C)nc2s1 [Compound 4-3] | – | – | 513 nM | 72.4 nM | 510 nM | 73 nM | –
O=C(Nc1cccc(C(=O)c2ccc3nc(C(=O)NC4CC4)[nH]c3c2)c1)Nc1cccc(C(F)(F)F)c1 [Compound D8] | – | – | – | – | – | – | IC50 (B-Raf^V600E [5]): > 5000 nM; IC50 (KDR): 1320 nM
CC(C)(C)Oc1cccc(C(=O)Nc2cccc(Oc3ccc4nc(NC(=O)C5CC5)cn4n3)c2)c1 [Compound 1-10] | – | – | 1.82 nM | 15.1 nM | 1.8 nM | 15 nM | –
CC(=O)Nc1nc2ccc(Oc3ccc(F)c(NC(=O)c4cccc(C5(C#N)CC5)c4Cl)c3)nc2s1 [Compound 3-5] | – | – | 3.39 nM | 6.31 nM | 3.4 nM | 6.3 nM | –
N#CC1(c2cccc(C(=O)Nc3cc(Oc4ccc5nc(NC(=O)C6CC6)sc5n4)ccc3Cl)c2Cl)CC1 [Compound 3-4] | – | – | 7.59 nM | 42.7 nM | 7.5 nM | 43 nM | –
N#Cc1c(Oc2cccc(NC(=O)Cc3ccccc3C(F)(F)F)c2)ccc2nc(NC(=O)C3CC3)sc12 [Compound 6-5] | 7.00 | 7.85 | – | – | – | – | –
CC(C)(C#N)c1cccc(C(=O)Nc2cccc(Oc3ccc4nc(NC(=O)C5CC5)sc4c3)c2)c1 [Compound 2-5] | – | – | 14.1 nM | 25.1 nM | 14 nM | 25 nM | –
O=C(Nc1cccc(Oc2ccc3nc(NC(=O)C4CC4)cn3n2)c1)c1cccc(C(F)(F)F)c1 [Compound 1-4] | – | – | 1.91 nM | 7.59 nM | 1.9 nM | 7.6 nM | –
CC(C)(C#N)c1cccc(C(=O)Nc2cccc(Oc3ccc4nc(NC(=O)C5CC5)cn4c3)c2)c1 [Compound 2-1] | – | – | 1.82 nM | 49 nM | 1.8 nM | 49 nM | –
CC(C)NC(=O)c1nc2ccc(C(=O)c3cccc(NC(=O)Nc4cccc(C(F)(F)F)c4)c3)cc2[nH]1 [Compound D7] | – | – | – | – | – | – | IC50 (B-Raf^V600E [5]): > 5000 nM; IC50 (KDR): 1520 nM
N#Cc1c(Oc2cccc(NC(=O)Nc3ccc(C(F)(F)F)cc3)c2)ccc2nc(NC(=O)C3CC3)sc12 [Compound 6-2] | 6.48 | 7.74 | – | – | – | – | –
CC(C)(C#N)c1cccc(C(=O)Nc2cccc(Oc3ccc4nc(NC(=O)C5CC5)sc4c3CO)c2)c1 [Compound 5-4] | 8.13 | 7.62 | – | – | – | – | –
CNC(=O)c1nc2ccc(C(=O)c3cccc(NC(=O)c4ccc(C)cc4)c3)cc2[nH]1 [Compound D1] | – | – | – | – | – | – | Actual pIC50 B-Raf (B-Raf^V600E [5]): 6.55; IC50 (B-Raf^V600E [5]): 280 nM; Actual pIC50 KDR (KDR): 6.00; IC50 (KDR): 990 nM
CC(=O)Nc1cn2nc(Oc3cccc(NC(=O)c4cccc(C(F)(F)F)c4)c3)ccc2n1 [Compound 1-2] | – | – | 1.1 nM | 4.07 nM | 1.1 nM | 4.1 nM | –

Compound | KDR Actual pIC50 (VEGFR2 [1]; −log IC50 of literature IC50) | B-Raf Actual pIC50 (B-Raf^V600E [2]) | IC50 (VEGFR2 [1]) | IC50 (B-Raf^V600E [2]) | IC50 (VEGFR2 [3]) | IC50 (B-Raf^V600E [4]) | also measured
CN(c1ccc(F)c(NC(=O)c2cccc(OC(C)(C)C#N)c2Cl)c1)c1ccc2nc(NC(=O)C3CC3)sc2n1 [Compound 3-8] | 8.12 | – | – | – | – | – | –
O=C(Nc1cccc(Oc2ccc3nc(NC(=O)C4CCOCC4)cn3n2)c1)c1cccc(C(F)(F)F)c1 [Compound 1-1] | – | – | – | 42.7 nM | – | 43 nM | –
N#Cc1c(Oc2cccc(NC(=O)Nc3ccccc3C(F)(F)F)c2)ccc2nc(NC(=O)C3CC3)sc12 [Compound 6-1] | 6.92 | 7.72 | – | – | – | – | –
N#Cc1c(Oc2ccc(F)c(NC(=O)Nc3ccc(C(F)(F)F)cc3)c2)ccc2nc(NC(=O)C3CC3)sc12 [Compound 6-4] | 6.18 | 7.59 | – | – | – | > 26 nM | –
CC(=O)Nc1nc2cnc(Oc3cc(NC(=O)c4cccc(CCC#N)c4)ccc3C)nc2s1 [Compound 4-1] | – | – | 407 nM | 51.3 nM | 410 nM | 51 nM | –
CC(C)(C#N)c1cccc(C(=O)Nc2cccc(Oc3ccc4nc(NC(=O)C5CC5)[nH]c4c3)c2)c1 [Compound 2-2] | – | – | 8.13 nM | 40.7 nM | 8.1 nM | 41 nM | –
O=C(Nc1cccc(Oc2ccc3nc(NC(=O)C4CC4)cn3n2)c1)c1ccccc1C(F)(F)F [Compound 1-8] | – | – | 1.41 nM | 3720 nM | 1.4 nM | 3700 nM | –
N#Cc1c(Oc2cccc(NC(=O)Cc3ccc(C(F)(F)F)cc3)c2)ccc2nc(NC(=O)C3CC3)sc12 [Compound 6-7] | 6.72 | 8.02 | – | – | – | – | –
CC(=O)Nc1nc2cnc(Oc3cc(NC(=O)c4cccc(CC(C)(C)C#N)c4)ccc3C)nc2s1 [Compound 4-2] | – | – | 302 nM | 100 nM | 300 nM | – | –
CC(C)(C#N)c1cccc(C(=O)Nc2cccc(Oc3ccc4nc(NC(=O)C5CC5)[nH]c4n3)c2)c1 [Compound 2-3] | – | – | 3.09 nM | 17 nM | 3.1 nM | 17 nM | –
CCC(=O)Nc1cn2nc(Oc3cccc(NC(=O)c4cccc(C(F)(F)F)c4)c3)ccc2n1 [Compound 1-3] | – | – | 1.7 nM | 6.92 nM | 1.7 nM | 6.9 nM | –
Cn1c(NC(=O)C2CC2)nc2ccc(Oc3cccc(NC(=O)c4cccc(C(C)(C)C#N)c4)c3)nc21 [Compound 2-4] | – | – | 2.4 nM | 200 nM | 2.4 nM | 200 nM | –
CC(C)(C#N)c1cccc(C(=O)Nc2cccc(Oc3ccc4nc(NC(=O)C5CC5)sc4c3[N+](=O)[O-])c2)c1 [Compound 5-1] | 7.15 | 7.60 | – | – | – | – | –
N#CC1(c2cccc(C(=O)Nc3cc(Oc4ccc5nc(NC(=O)C6CC6)sc5n4)ccc3F)c2Cl)CC1 [Compound 3-3] | – | – | – | 7.08 nM | – | – | IC50 (VEGFR2 [1]; −log IC50 of literature IC50, read-out: KDR Actual pIC50 (converted)): 2.19 nM
N#Cc1c(Oc2ccc(F)c(NC(=O)Nc3cccc(C(F)(F)F)c3)c2)ccc2nc(NC(=O)C3CC3)sc12 [Compound 6-3] | 6.14 | 7.31 | – | – | – | – | –
O=C(Nc1cccc(Oc2ccc3nc(NC(=O)C4CCCC4)cn3n2)c1)c1cccc(C(F)(F)F)c1 [Compound 1-6] | – | – | 9.33 nM | 43.7 nM | 9.3 nM | 44 nM | –
CC(=O)Nc1nc2ccc(N(C)c3ccc(F)c(NC(=O)c4cccc(OC(C)(C)C#N)c4)c3)nc2s1 [Compound 3-6] | 8.00 | 7.64 | – | – | – | – | –
COc1cccc(C(=O)Nc2cccc(Oc3ccc4nc(NC(=O)C5CC5)cn4n3)c2)c1 [Compound 1-9] | – | – | 0.309 nM | 18.2 nM | 0.31 nM | 18 nM | –
CC(C)(O)c1cccc(C(=O)Nc2cccc(Oc3ccc4nc(NC(=O)C5CC5)cn4n3)c2)c1 [Compound 1-11] | – | – | 0.813 nM | 10 nM | 0.82 nM | – | –
N#Cc1c(Oc2ccc(F)c(NC(=O)Cc3cccc(C(F)(F)F)c3)c2)ccc2nc(NC(=O)C3CC3)sc12 [Compound 6-8] | 6.80 | 8.62 | – | – | – | – | –
N#Cc1c(Oc2cccc(NC(=O)Cc3cccc(C(F)(F)F)c3)c2)ccc2nc(NC(=O)C3CC3)sc12 [Compound 6-6] | 6.82 | 8.89 | – | – | – | – | –
